Results from patent publication US20050112071A1, “Hypoestoxides, derivatives, agonists and crude extracts thereof for use in cosmetic compositions” (PARAQUEST, INC., priority 2003, published 2005).

Tested on: subjects with psoriasis
Assay: erythema resolution in psoriasis plaques after topical administration
Assay type: in vivo, human
Settings: 0.5% by weight in cosmetic composition, topical twice daily for one week; two subjects, elbows; observed day 7
Procedure: In another method, an effective amount of hypoestoxide crude extract, hypoestes rosea dried leaf powder or a compound of formula I, in a cosmetic composition or in isolation, is applied to the host's skin to alleviate psoriasis. In a preferred embodiment, 0.5% by weight of pure hypoestoxide in a cosmetic composition was applied to two subjects with psoriasis. Topical administration was performed twice daily for one week at the subjects' job sites. Subjects had crusted erythematous plaques on their elbows. The cosmetic composition consisted of the following ingredients: multi-fruit complex, cetearyl alcohol and ceteareth 20, glyceryl stearate, cetyl alcohol, tocopherol, vitamin A palmatate, allantoin, lanolin, ascorbic acid, botanical extract, xanthan gum, ceteth-20 and propylparaben. Erythema resolution was noted by observation of the subjects' plaques on day 7.

Q: `C=C1C(=O)C[C@H]2C[C@@H]3O[C@@]3(C)CC[C@@H]3O[C@@]3(C)C[C@@H](OC(C)=O)[C@H]1C2(C)C` [hypoestoxide] was tested. Which “Erythema resolution of crusted erythematous plaques” value did it give?
A: significant erythema resolution
